Data taken from patent US9708314B2, “Heterocyclic amide compound” (NISSAN CHEMICAL INDUSTRIES, LTD., priority 2013, dated 2017).

Columns and labels:
Assay type in all cases: in vivo
[1] = tested on: transplanted Oryza sativa; test: Test Example 1: effect on crop, application before weed generation in submerged conditions; conditions: Application herbicide amount 320 g/ha; Seventeenth Table
Outline: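 Water-diluted emulsion formulation is applied onto flood water (4 cm deep) covering alluvial soil on the day weed seeds are sown, after transplanting 2.5 leaf stage rice. Rates are expressed per hectare. Injury or control is graded 0–5 three weeks later.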

Abutilon theophrasti = test: Test Example 4: herbicidal effect by application to foliage (diluvial soil, plastic box); conditions: Application herbicide amount 320 g/ha; foliage application
Outline: (§1)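 Greenhouse plants (25° C. to 30° C., 14 d, diluvial soil) receive a foliar spray of water-diluted emulsifiable formulation at defined g/ha. Grading after 3 weeks uses a six-step herbicidal-ratio scale, with 4 covering 70% to <90% and 1 covering 5% to <20%.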

Alopecurus myosuroides = test: as above; conditions: Application herbicide amount 320 g/ha; foliage application
Outline: as §1

Amaranthus retroflexus = test: as above; conditions: Application herbicide amount 320 g/ha; foliage application
Outline: as §1

Apera spica-venti. = test: as above; conditions: Application herbicide amount 320 g/ha; foliage application
Outline: as §1

Avena fatua = test: as above; conditions: Application herbicide amount 320 g/ha; foliage application
Outline: as §1

Chenopodium album = test: as above; conditions: Application herbicide amount 320 g/ha; foliage application
Outline: as §1

Digitaria ciliaris = test: as above; conditions: Application herbicide amount 320 g/ha; foliage application
Outline: as §1

[2] = tested on: Echinochloa crus-galli var. crus-galli; test: as above; conditions: Application herbicide amount 320 g/ha; foliage application
Outline: as §1

Galium spurium = test: as above; conditions: Application herbicide amount 320 g/ha; foliage application
Outline: as §1

Lolium multiflorum Lam. = test: as above; conditions: Application herbicide amount 320 g/ha; foliage application
Outline: as §1

Setaria viridis = test: as above; conditions: Application herbicide amount 320 g/ha; foliage application
Outline: as §1

Stellaria media = test: as above; conditions: Application herbicide amount 320 g/ha; foliage application
Outline: as §1

Veronica persica = test: as above; conditions: Application herbicide amount 320 g/ha; foliage application
Outline: as §1

[3] = tested on: Beta vulgaris ssp. vulgaris; test: Test Example 4: effect on crop by application to foliage (diluvial soil, plastic box); conditions: Application herbicide amount 320 g/ha; foliage application
Outline: as §1

Brassica campestris L. = test: as above; conditions: Application herbicide amount 320 g/ha; foliage application
Outline: as §1

Glycine max = test: as above; conditions: Application herbicide amount 320 g/ha; foliage application
Outline: as §1

Triticum aestivum = test: as above; conditions: Application herbicide amount 320 g/ha; foliage application
Outline: as §1

Zea mays = test: as above; conditions: Application herbicide amount 320 g/ha; foliage application
Outline: as §1

[4] = tested on: directly sowed Oryza sativa; test: as above; conditions: Application herbicide amount 320 g/ha; foliage application
Outline: as §1

Structure (SMILES)	a: transplanted Oryza sativa (effect on crop grade) [1]	M (Abutilon theophrasti) herbicidal effect grade (Abutilon theophrasti)	J (Alopecurus myosuroides) herbicidal effect grade (Alopecurus myosuroides)	N (Amaranthus retroflexus) herbicidal effect grade (Amaranthus retroflexus)	L (Apera spica-venti.) herbicidal effect grade (Apera spica-venti.)	I (Avena fatua) herbicidal effect grade (Avena fatua)	O (Chenopodium album) herbicidal effect grade (Chenopodium album)	F (Digitaria ciliaris) herbicidal effect grade (Digitaria ciliaris)	H (Echinochloa crus-galli var. crus-galli) herbicidal effect grade [2]	Q (Galium spurium) herbicidal effect grade (Galium spurium)	K (Lolium multiflorum Lam.) herbicidal effect grade (Lolium multiflorum Lam.)	G (Setaria viridis) herbicidal effect grade (Setaria viridis)	P (Stellaria media) herbicidal effect grade (Stellaria media)	R (Veronica persica) herbicidal effect grade (Veronica persica)	f (Beta vulgaris ssp. vulgaris) effect on crop grade [3]	g (Brassica campestris L.) effect on crop grade (Brassica campestris L.)	d (Glycine max) effect on crop grade (Glycine max)	e (Triticum aestivum) effect on crop grade (Triticum aestivum)	c (Zea mays) effect on crop grade (Zea mays)	b (directly sowed Oryza sativa) effect on crop grade [4]
O=C(Nc1nnco1)c1ccc(C(F)(F)F)n2c(-c3ccc(F)cc3)nnc12 [1-147]	2 (Herbicidal ratio of 20% or more and less than 40%)	3 (Herbicidal ratio of 40% or more and less than 70%)	2 (Herbicidal ratio of 20% or more and less than 40%)	4 (Herbicidal ratio of 70% or more and less than 90%)	3 (Herbicidal ratio of 40% or more and less than 70%)	3 (Herbicidal ratio of 40% or more and less than 70%)	5 (Herbicidal ratio of 90% or more (almost completely withered))	4 (Herbicidal ratio of 70% or more and less than 90%)	4 (Herbicidal ratio of 70% or more and less than 90%)	3 (Herbicidal ratio of 40% or more and less than 70%)	3 (Herbicidal ratio of 40% or more and less than 70%)	3 (Herbicidal ratio of 40% or more and less than 70%)	5 (Herbicidal ratio of 90% or more (almost completely withered))	5 (Herbicidal ratio of 90% or more (almost completely withered))	5 (Herbicidal ratio of 90% or more (almost completely withered))	5 (Herbicidal ratio of 90% or more (almost completely withered))	3 (Herbicidal ratio of 40% or more and less than 70%)	3 (Herbicidal ratio of 40% or more and less than 70%)	0 (Herbicidal ratio of 5% or less (almost no effect))	0 (Herbicidal ratio of 5% or less (almost no effect))
COc1cc(OC)cc(-c2nnc3c(C(=O)Nc4nnco4)ccc(C(F)(F)F)n23)c1 [1-148]	4 (Herbicidal ratio of 70% or more and less than 90%)	3 (Herbicidal ratio of 40% or more and less than 70%)	1 (Herbicidal ratio of 5% or more and less than 20%)	5 (Herbicidal ratio of 90% or more (almost completely withered))	2 (Herbicidal ratio of 20% or more and less than 40%)	1 (Herbicidal ratio of 5% or more and less than 20%)	5 (Herbicidal ratio of 90% or more (almost completely withered))	4 (Herbicidal ratio of 70% or more and less than 90%)	5 (Herbicidal ratio of 90% or more (almost completely withered))	4 (Herbicidal ratio of 70% or more and less than 90%)	3 (Herbicidal ratio of 40% or more and less than 70%)	3 (Herbicidal ratio of 40% or more and less than 70%)	5 (Herbicidal ratio of 90% or more (almost completely withered))	5 (Herbicidal ratio of 90% or more (almost completely withered))	5 (Herbicidal ratio of 90% or more (almost completely withered))	4 (Herbicidal ratio of 70% or more and less than 90%)	3 (Herbicidal ratio of 40% or more and less than 70%)	0 (Herbicidal ratio of 5% or less (almost no effect))	0 (Herbicidal ratio of 5% or less (almost no effect))	3 (Herbicidal ratio of 40% or more and less than 70%)
COc1ccc(-c2nnc3c(C(=O)Nc4nnco4)ccc(C(F)(F)F)n23)cc1 [1-149]	3 (Herbicidal ratio of 40% or more and less than 70%)	3 (Herbicidal ratio of 40% or more and less than 70%)	1 (Herbicidal ratio of 5% or more and less than 20%)	3 (Herbicidal ratio of 40% or more and less than 70%)	2 (Herbicidal ratio of 20% or more and less than 40%)	1 (Herbicidal ratio of 5% or more and less than 20%)	5 (Herbicidal ratio of 90% or more (almost completely withered))	4 (Herbicidal ratio of 70% or more and less than 90%)	4 (Herbicidal ratio of 70% or more and less than 90%)	3 (Herbicidal ratio of 40% or more and less than 70%)	1 (Herbicidal ratio of 5% or more and less than 20%)	3 (Herbicidal ratio of 40% or more and less than 70%)	5 (Herbicidal ratio of 90% or more (almost completely withered))	5 (Herbicidal ratio of 90% or more (almost completely withered))	5 (Herbicidal ratio of 90% or more (almost completely withered))	5 (Herbicidal ratio of 90% or more (almost completely withered))	3 (Herbicidal ratio of 40% or more and less than 70%)	0 (Herbicidal ratio of 5% or less (almost no effect))	0 (Herbicidal ratio of 5% or less (almost no effect))	1 (Herbicidal ratio of 5% or more and less than 20%)
O=C(Nc1nnco1)c1ccc(C(F)(F)F)n2c(-c3ccc(Cl)nc3)nnc12 [1-150]	4 (Herbicidal ratio of 70% or more and less than 90%)	3 (Herbicidal ratio of 40% or more and less than 70%)	1 (Herbicidal ratio of 5% or more and less than 20%)	5 (Herbicidal ratio of 90% or more (almost completely withered))	3 (Herbicidal ratio of 40% or more and less than 70%)	3 (Herbicidal ratio of 40% or more and less than 70%)	5 (Herbicidal ratio of 90% or more (almost completely withered))	4 (Herbicidal ratio of 70% or more and less than 90%)	5 (Herbicidal ratio of 90% or more (almost completely withered))	4 (Herbicidal ratio of 70% or more and less than 90%)	3 (Herbicidal ratio of 40% or more and less than 70%)	3 (Herbicidal ratio of 40% or more and less than 70%)	5 (Herbicidal ratio of 90% or more (almost completely withered))	5 (Herbicidal ratio of 90% or more (almost completely withered))	5 (Herbicidal ratio of 90% or more (almost completely withered))	5 (Herbicidal ratio of 90% or more (almost completely withered))	4 (Herbicidal ratio of 70% or more and less than 90%)	3 (Herbicidal ratio of 40% or more and less than 70%)	0 (Herbicidal ratio of 5% or less (almost no effect))	3 (Herbicidal ratio of 40% or more and less than 70%)
